# Data: article PMC7369900 (International Journal of Molecular Sciences, 2020)
# Test system: C. albicans Gu5
row,SMILES,MIC50 [µM]
1,"CC[C@H](C)[C@H](NC(=O)[C@H](CCCCN)NC(=O)[C@H](CCCCN)NC(=O)[C@H](C)NC(=O)[C@H](CC(C)C)NC(=O)[C@H](C)NC(=O)[C@H](C)NC(=O)[C@H](CC(C)C)NC(=O)[C@H](C)NC(=O)[C@H](CCCCN)NC(=O)[C@H](CC(C)C)NC(=O)[C@H](CC(N)=O)NC(=O)[C@@H](NC(=O)[C@H](CCCCN)NC(=O)CNC(=O)[C@H](CC(C)C)NC(=O)[C@H](CC(C)C)NC(=O)[C@H](Cc1ccc(O)cc1)NC(=O)CNC(=O)[C@H](C)NC(=O)CN1CCN(c2cc3c(cc2F)c(=O)c(C(=O)O)cn3C2CC2)CC1)[C@@H](C)CC)C(=O)N[C@@H](CC(C)C)C(N)=O [Compound 1, CIP-CH2CO-TP10-NH2]",50
2,"CC[C@H](C)[C@H](NC(=O)[C@H](CCCCN)NC(=O)[C@H](CCCCN)NC(=O)[C@H](C)NC(=O)[C@H](CC(C)C)NC(=O)[C@H](C)NC(=O)[C@H](C)NC(=O)[C@H](CC(C)C)NC(=O)[C@H](C)NC(=O)[C@H](CCCCN)NC(=O)[C@H](CC(C)C)NC(=O)[C@H](CC(N)=O)NC(=O)[C@@H](NC(=O)[C@H](CCCCN)NC(=O)CNC(=O)[C@H](CC(C)C)NC(=O)[C@H](CC(C)C)NC(=O)[C@H](Cc1ccc(O)cc1)NC(=O)CNC(=O)[C@H](C)NC(=O)c1cn(C2CC2)c2cc(N3CCNCC3)c(F)cc2c1=O)[C@@H](C)CC)C(=O)N[C@@H](CC(C)C)C(N)=O [Compound 2, CIP-TP10-NH2]",25
3,"CC[C@H](C)[C@H](NC(=O)[C@H](CCCCN)NC(=O)[C@H](CCCCN)NC(=O)[C@H](C)NC(=O)[C@H](CC(C)C)NC(=O)[C@H](C)NC(=O)[C@H](C)NC(=O)[C@H](CC(C)C)NC(=O)[C@H](C)NC(=O)[C@H](CCCCN)NC(=O)[C@H](CC(C)C)NC(=O)[C@H](CC(N)=O)NC(=O)[C@@H](NC(=O)[C@H](CCCCN)NC(=O)CNC(=O)[C@H](CC(C)C)NC(=O)[C@H](CC(C)C)NC(=O)[C@H](Cc1ccc(O)cc1)NC(=O)CNC(=O)[C@H](C)NC(=O)CCSSCCC(=O)N1CCN(c2cc3c(cc2F)c(=O)c(C(=O)O)cn3C2CC2)CC1)[C@@H](C)CC)C(=O)N[C@@H](CC(C)C)C(N)=O [Compound 3, CIP-S-S-TP10-NH2]",12.5
4,"CC[C@H](C)[C@H](NC(=O)[C@H](CCCCN)NC(=O)[C@H](CCCCN)NC(=O)[C@H](C)NC(=O)[C@H](CC(C)C)NC(=O)[C@H](C)NC(=O)[C@H](C)NC(=O)[C@H](CC(C)C)NC(=O)[C@H](C)NC(=O)[C@H](CCCCN)NC(=O)[C@H](CC(C)C)NC(=O)[C@H](CC(N)=O)NC(=O)[C@@H](NC(=O)[C@H](CCCCN)NC(=O)CNC(=O)[C@H](CC(C)C)NC(=O)[C@H](CC(C)C)NC(=O)[C@H](Cc1ccc(O)cc1)NC(=O)CNC(=O)[C@H](C)NC(=O)c1cn2c3c(c(N4CCN(C)CC4)c(F)cc3c1=O)OC[C@@H]2C)[C@@H](C)CC)C(=O)N[C@@H](CC(C)C)C(N)=O [Compound 4, LVX-TP10-NH2]",25
5,"CC[C@H](C)[C@H](NC(=O)[C@H](CCCCN)NC(=O)[C@H](CCCCN)NC(=O)[C@H](C)NC(=O)[C@H](CC(C)C)NC(=O)[C@H](C)NC(=O)[C@H](C)NC(=O)[C@H](CC(C)C)NC(=O)[C@H](C)NC(=O)[C@H](CCCCN)NC(=O)[C@H](CC(C)C)NC(=O)[C@H](CC(N)=O)NC(=O)[C@@H](NC(=O)[C@H](CCCCN)NC(=O)CNC(=O)[C@H](CC(C)C)NC(=O)[C@H](CC(C)C)NC(=O)[C@H](Cc1ccc(O)cc1)NC(=O)CNC(=O)[C@H](C)NC(=O)[C@@H](N)CSSC[C@H](NC(=O)c1cn2c3c(c(N4CCN(C)CC4)c(F)cc3c1=O)OC[C@@H]2C)C(=O)O)[C@@H](C)CC)C(=O)N[C@@H](CC(C)C)C(N)=O [Compound 5, LVXC-S-S-CTP10-NH2]",12.5
6,"CC[C@H](C)[C@H](NC(=O)[C@H](CCCCN)NC(=O)[C@H](CCCCN)NC(=O)[C@H](C)NC(=O)[C@H](CC(C)C)NC(=O)[C@H](C)NC(=O)[C@H](C)NC(=O)[C@H](CC(C)C)NC(=O)[C@H](C)NC(=O)[C@H](CCCCN)NC(=O)[C@H](CC(C)C)NC(=O)[C@H](CC(N)=O)NC(=O)[C@@H](NC(=O)[C@H](CCCCN)NC(=O)CNC(=O)[C@H](CC(C)C)NC(=O)[C@H](CC(C)C)NC(=O)[C@H](Cc1ccc(O)cc1)NC(=O)CNC(=O)[C@H](C)NC(=O)[C@@H](N)CSSC[C@H](N)C(=O)N1CCN(c2cc3c(cc2F)c(=O)c(C(=O)O)cn3C2CC2)CC1)[C@@H](C)CC)C(=O)N[C@@H](CC(C)C)C(N)=O [Compound 6, CIPC-S-S-CTP10-NH2]",25
7,"CC[C@H](C)[C@H](NC(=O)[C@H](CCCCN)NC(=O)[C@H](CCCCN)NC(=O)[C@H](C)NC(=O)[C@H](CC(C)C)NC(=O)[C@H](C)NC(=O)[C@H](C)NC(=O)[C@H](CC(C)C)NC(=O)[C@H](C)NC(=O)[C@H](CCCCN)NC(=O)[C@H](CC(C)C)NC(=O)[C@H](CC(N)=O)NC(=O)[C@@H](NC(=O)[C@H](CCCCN)NC(=O)CNC(=O)[C@H](CC(C)C)NC(=O)[C@H](CC(C)C)NC(=O)[C@H](Cc1ccc(O)cc1)NC(=O)CNC(=O)[C@H](C)N)[C@@H](C)CC)C(=O)N[C@@H](CC(C)C)C(N)=O [TP10-NH2, transportan 10, reference compound]",100
